Entries after “also recorded” stand apart in the source; their conditions may differ. Like-named read-outs stand apart in the source and are kept apart here. Values belong to the molecule of their own block, whether it stands above or below them.
Assays:
CCA1:LUC seedlings [1] = experiment: Bioluminescence-based circadian period lengthening in CCA1:LUC seedlings; assay type: in vivo, Arabidopsis thaliana; conditions: for Period‐lengthening activity (in words) / Concentration required for 2‐hr period lengthening (2hLC) / Concentration required for 5‐hr period lengthening (5hLC): CCA1:LUC seedlings; for Concentration required for 2‐hr period lengthening (2hLC) / Concentration required for 5‐hr period lengthening (5hLC): constant light
Experimental: Bioluminescence‐based circadian rhythms of CCA1:LUC plants treated with small molecules were analyzed by auto‐luminescence detection (Churitsu CL96) as described previously (Uehara et al., 2019). Period length was automatically calculated as previously described (Kamioka et al., 2016).
To estimate CK1 inhibitor activity in vivo, we choose to measure circadian period‐lengthening activity in Arabidopsis seedlings. The assay was made more efficient by monitoring the circadian period using a clock reporter plant line (CCA1:LUC) and an automated luminometer. These tools can be used to measure the circadian period with high confidence, and estimates of in vivo CK1 inhibitor activity are quantitative (Uehara et al., 2019). Four‐day‐old CCA1:LUC seedlings grown under 12‐hr light/12‐hr dark conditions were treated with IC261, PF‐670462, and PHA767491 at different concentrations, and seedling luminescence was monitored under constant light conditions. Dimethyl sulfoxide (DMSO), the solvent used for all of the CK1 inhibitors, was used as a control. IC261 lengthened the circadian period of CCA1:LUC seedlings in a dose‐dependent manner (Figure 1d), with a 2‐hr period lengthening at 500 µM. PF‐670462 and PHA767491 treatment concentrations also correlated with period lengthening (Figure 1e and f). The concentrations required for 2‐hr lengthening effects were 90 µM for PF‐670472 and 47 µM for PHA767491, which was consistent with previous work (Uehara et al., 2019). Thus, PHA767491 was the strongest in vivo CK1 inhibitor among the three inhibitors tested.

Recombinant CKL4 kinase = target: T1, Recombinant CKL4 kinase (Arabidopsis thaliana, UniProt Q8LPI7); experiment: In vitro phosphorylation assay of CKL4 (32P phosphorylation of casein); assay type: biochemical
T1 sequence (Q8LPI7 1-414): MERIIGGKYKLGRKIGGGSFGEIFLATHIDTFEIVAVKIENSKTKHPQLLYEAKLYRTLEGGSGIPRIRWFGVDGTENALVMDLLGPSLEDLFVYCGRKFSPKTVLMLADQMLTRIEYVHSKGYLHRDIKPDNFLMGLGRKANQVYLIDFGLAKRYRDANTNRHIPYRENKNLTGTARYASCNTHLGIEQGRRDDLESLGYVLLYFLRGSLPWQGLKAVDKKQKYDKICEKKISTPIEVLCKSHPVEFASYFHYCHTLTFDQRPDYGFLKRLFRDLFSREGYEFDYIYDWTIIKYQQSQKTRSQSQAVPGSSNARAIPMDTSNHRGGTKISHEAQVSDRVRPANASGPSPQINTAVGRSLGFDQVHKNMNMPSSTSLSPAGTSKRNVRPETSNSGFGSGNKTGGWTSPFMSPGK
Experimental: In vitro phosphorylation assays using recombinant CKL4 were performed as described previously (Uehara et al., 2019), with synthetic small molecules. IC261 and PF‐670462 were purchased (Sigma‐Aldrich catalog numbers I0658 and SML0795, respectively). PHA767491 was synthesized as previously described (Uehara et al., 2019). All chemical compounds were dissolved in dimethyl sulfoxide (DMSO) as 10 mM stock solutions. Stock solutions were diluted with DMSO to the working concentration and added to assays in kinase reaction buffer (Uehara et al., 2019).
The activities of three known CK1 inhibitors were measured in vitro by a previously reported method (Uehara et al., 2019). Recombinant CKL4 kinase, casein, ^32P‐ATP, and different concentrations of the inhibitors were combined in a reaction buffer and kept at 37°C for 2 hr. Resulting samples were separated on a polyacrylamide gel by electrophoresis, and ^32P phosphorylation of casein was measured as an indicator of CKL4 kinase activity. IC50 (half‐maximal inhibitory concentration) was determined by calculating the results from at least two independent experiments. […] The stronger in vitro CK1 inhibitory activity shown by PF‐670462 relative to PHA767491 was consistent with previous reports (Uehara et al., 2019).

GR60ox2 and CPD = experiment: RT-qPCR of the ATSK downstream genes GR60ox2 and CPD; assay type: in vivo, Arabidopsis; conditions: 10 or 50 µM, 6 hr
Experimental: […] Three biological replicates were used for each assay. Harvested seedlings were frozen in liquid nitrogen and crushed with zirconia beads in a Tissue Lyser II, and RNA was isolated with Illustra RNAspin (25‐0500‐72, GE Healthcare). RT‐qPCR was performed as described previously (Nakamichi et al., 2010) using an Eco Real‐Time PCR System (Illumina). Gene expression was normalized against IPP2, and maximal values were set to 1. Primers for detecting IPP2, PRR7, GR60ox2, and CPD were described previously (De Rybel et al., 2009; Kamioka et al., 2016).
Because the ATSK family was identified by the molecular probe assay as potential targets of AMI‐331, even though the affinities between AMI‐331 and ATSKs were not as high as between AMI‐331 and CK1, […] affects the expression of genes downstream of ATSKs (De Rybel et al., 2009). […]

PRR7 = experiment: RT-qPCR of the CK1 downstream gene PRR7; assay type: in vivo, Arabidopsis; conditions: 10 and 50 µM, 6 hr
Experimental: Arabidopsis Col‐0 seedlings that had been grown under constant light conditions for […] were immersed in 10 or 50 µM of the GSK‐3, SHAGGY‐related, and BIN2 kinase inhibitor Bikinin (SML0094, Sigma) (De Rybel et al., 2009), […], or DMSO as control for 6 hr. Three biological replicates were used for each assay. Harvested seedlings were frozen in liquid nitrogen and crushed with zirconia beads in a Tissue Lyser II, and RNA was isolated with Illustra RNAspin (25‐0500‐72, GE Healthcare). RT‐qPCR was performed as described previously (Nakamichi et al., 2010) using an Eco Real‐Time PCR System (Illumina). Gene expression was normalized against IPP2, and maximal values were set to 1. Primers for detecting IPP2, PRR7, GR60ox2, and CPD were described previously (De Rybel et al., 2009; Kamioka et al., 2016).
Because the ATSK family was identified by the molecular probe assay as potential targets of AMI‐331, even though the affinities between AMI‐331 and ATSKs were not as high as between AMI‐331 and CK1, we used the ATSK inhibitor Bikinin to determine if AMI‐331 treatment affects the expression of genes downstream of ATSKs (De Rybel et al., 2009). Four‐day‐old Arabidopsis seedlings grown under constant light conditions were treated with Bikinin or AMI‐331 for 6 hr, and mRNA extracted from seedlings samples was analyzed by RT‐qPCR.

CCA1:LUC seedlings [2] = test system: CCA1:LUC seedlings; parameters: method as in Uehara et al., 2019; conditions: ref Uehara et al., 2019; cited from earlier work
PRR5 and TOC1 = test system: PRR5 and TOC1; parameters: method as in Uehara et al., 2019; conditions: ref Uehara et al., 2019; cited from earlier work
[3] = recombinant CKL4, casein, 32P‐ATP, 37°C for 2 hr, read-out: IC50 for in vitro CKL4 kinase activity

- IC50 (Recombinant CKL4 kinase; [3]): 700 nM
SMILES: O=C1NCCc2[nH]c(-c3ccncc3)c(Br)c21 [AMI‐23]
- Period‐lengthening activity (in words) (CCA1:LUC seedlings [1]): Strong activities
- Concentration required for 2‐hr period lengthening (2hLC) (CCA1:LUC seedlings [1]): 1.5 µM
- Concentration required for 5‐hr period lengthening (5hLC) (CCA1:LUC seedlings [1]): 5.0 µM

SMILES: O=C1NCCc2[nH]c(-c3ccncc3)c(Cl)c21 [AMI‐24]
- Period‐lengthening activity (in words) (CCA1:LUC seedlings [1]): Strong activities

SMILES: Cl.O=C1NCCc2c1cc(-c1ccncc1)n2CCn1cccc1 [AMI‐118]
- Period‐lengthening activity (in words) (CCA1:LUC seedlings [1]): weak period‐lengthening activity

SMILES: CCn1c(-c2ccncc2)cc2c1CCNC2=O [AMI‐126]
- Period‐lengthening activity (in words) (CCA1:LUC seedlings [1]): strong activity

- IC50 (Recombinant CKL4 kinase; [3]): 1200 nM
SMILES: C#CCn1c(-c2ccncc2)cc2c1CCNC2=O [AMI‐212]
- Period‐lengthening activity (in words) (CCA1:LUC seedlings [1]): weak period‐lengthening activity; also recorded: stronger period‐lengthening activity than AMI‐126
- Concentration required for 2‐hr period lengthening (2hLC) (CCA1:LUC seedlings [1]): around 7.0 µM
- Concentration required for 5‐hr period lengthening (5hLC) (CCA1:LUC seedlings [1]): 26 µM
- Concentration required for 2‐hr period lengthening (2hLC) (CCA1:LUC seedlings [1]; listed as AMI-212): 7.0 µM
- Period‐lengthening (in vivo inhibitory) activity relative to PHA767491 (CCA1:LUC seedlings [1]; compared with parent PHA767491): approximately fivefold higher

SMILES: Cc1c(-c2ccncc2)[nH]c2c1C(=O)NCC2 [AMI‐217]
- Period‐lengthening activity (in words) (CCA1:LUC seedlings [1]): Strong activities

SMILES: O=C(O)CCC(=O)Nc1ccc(Br)cn1 [Bikinin, reference compound]
- GR60ox2 and CPD transcript abundance (GR60ox2 and CPD): reduced
- PRR7 transcript abundance (PRR7): did not affect
- Period lengthening on inhibition of ATSKs (CCA1:LUC seedlings [2]): did not result in period lengthening

SMILES: COc1cc(OC)c(C=C2C(O)=Nc3ccccc32)c(OC)c1 [IC261, reference compound]
- IC50 (Recombinant CKL4 kinase): 6700 nM

- IC50 (Recombinant CKL4 kinase; [3]): 800 nM
SMILES: Nc1nccc(-c2c(-c3ccc(F)cc3)ncn2C2CCCCC2)n1 [PF‐670462, reference compound]

- IC50 (Recombinant CKL4 kinase; [3]): 5900 nM
SMILES: Cl.O=C1NCCc2[nH]c(-c3ccncc3)cc21 [PHA767491, 1,5,6,7‐tetrahydro‐2‐(4‐pyridinyl)‐4H‐pyrrolo[3,2‐c]pyridin‐4‐one hydrochloride]
- Effective concentrations for PRR5 or TOC1 accumulation (PRR5 and TOC1): 250 to 500 µM
- Effective concentration of PHA767491 as CK1 inhibitor in plants (CCA1:LUC seedlings [2]): more than 40 µM
